Experimental data published in PMC10718076, “1,2-Disubstituted bicyclo[2.1.1]hexanes as saturated bioisosteres of ortho-substituted benzene” (Chemical Science, 2023).
≈ marks a conversion by molar mass, not a printed value. Read-outs that look alike come from different tables or passages of the source.

Experiments:
[1] = Kinetic solubility in phosphate-buffered saline, pH 7.4; format: physicochemical; settings: 25 °C, kinetic from dmso stock, phosphate-buffered saline; for solubility kinetic at 2 h: aqueous buffer, pH 7.4, read-out: Sol.: experimental kinetic solubility; for solubility at 2 h: pH 7.4, aqueous buffer, Table S2, 2st batch
Procedure, shortened: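 Compound diluted from 20 mM DMSO stock to nominal 400 μM in PBS pH 7.4, shaken 2 h at 25 °C, then filtered. Filtrate concentration determined by UV-Vis (230-550 nm) against calibration curves in 50% acetonitrile/PBS; effective range approximately 2-400 μM.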

[2] = test system: Aspergillus niger (strain VURV-F 822); experiment: Antifungal disk diffusion method; format: cell-based; settings: read-out: Diameter of inhibition zone; for zone of inhibition at 4 µg/mL: Concentration 0.004 mg/mL, Boscalid, Bixafen marked st; for zone of inhibition at 4 µg/mL / zone of inhibition at 8 µg/mL / zone of inhibition at 16 µg/mL / zone of inhibition at 30 µg/mL / zone of inhibition at 60 µg/mL: 0 = absence of antifungal activity; for zone of inhibition at 4 µg/mL / zone of inhibition at 60 µg/mL: Fluxapyroxad; for zone of inhibition at 8 µg/mL: Concentration 0.008 mg/mL; for zone of inhibition at 16 µg/mL: Concentration 0.016 mg/mL; for zone of inhibition at 30 µg/mL: Concentration 0.03 mg/mL; for zone of inhibition at 30 µg/mL / zone of inhibition at 60 µg/mL: (±)-29 marked st; for zone of inhibition at 60 µg/mL: Concentration 0.06 mg/mL, Bixafen; for zone of inhibition at 120 µg/mL: Concentration 0.12 mg/mL, (±)-28 marked st (static growth); for zone of inhibition at 250 µg/mL: Concentration 0.25 mg/mL, (±)-28 marked st (static growth, secondary growth of mycelium); for zone of inhibition at 500 µg/mL: Concentration 0.5 mg/mL; for zone of inhibition at 500 µg/mL / zone of inhibition at 1000 µg/mL / zone of inhibition at 2000 µg/mL: 10 μl per disk; for zone of inhibition at 1000 µg/mL: Concentration 1 mg/mL; for zone of inhibition at 2000 µg/mL: Concentration 2 mg/mL
Procedure: Antifungal activity of the synthetic compounds using disk diffusion methods The compounds were tested for plant pathogens Aspergillus niger (strain VURV-F 822), which was received from Culture collection of microorganisms of Crop Research Institute (Prague, Czech […]
The synthetic compounds' antifungal activity was evaluated using a disk diffusion assay for testing filamentous fungi (CLSI M51-A) and broth microdilution antifungal susceptibility testing (EUCAST E.DEF 7.3.1; CLSI M38-A2)
[CLSI M51-A. Method for Antifungal Disk Diffusion Susceptibility Testing of Nondermatophyte Filamentous Fungi; Approved Guideline.CLSI document M51-A. Wayne, PA:
Clinical and Laboratory Standards Institute; 2010. This method is standardized for Altenaria, Aspergillus, Bipolaris, Fusarium, order Mucorales, etc.]
[CLSI M38-A2. 2008. Reference method for broth dilution antifungal susceptibility testing of filamentous fungi, 2nd ed Approved standard M38 -A2 Clinical and Laboratory Standards Institute, […]
Antifungal disk diffusion method
The solutions of fungicides and their analogues were diluted in dimethyl sulfoxide (DMSO) to […]
mg/mL for each test component. Sterile paper disks (ASPECT, Ukraine) were soaked with 10 μl of a solution of the appropriate fungicide from the highest concentration to the lowest.
The fungal strains were cultured on Petri dishes with Saburo dextrose agar (Condalab, Spain) and incubated at 25 °C for 5 days. Sterile Dulbecco's phosphate -buffered saline (DPBS) with 0,1 % Tween 20 was used to cover colonies of fungus for obtained conidia l suspension. Suspension of conidia was adjusted to inoculums 2×10^5 conidia/mL by sterile DPBS.
For antifungal disk diffusion test we used square Petri dishes (FALCON A Corning Brand, USA). The conidial suspension (0.5 mL) was added to Petri dishes with Saburo dextrose agar. The suspension was evenly distributed over the surface of the nutrient medium with a glass spatula.
After the surface of the inoculated medium was dry, the disks with different concentrations of testing compounds were added to the Petri dishes. Each compound was tested in triplicate at different concentrations. Growth control was a disk with 10 μl of DMSO, which was used for test […]
Petri dishes incubated at 25 °C for 72 h. The test compounds at known concentrati on into contact with an inoculated medium then exert a growth-inhibiting effect then a clear zone (the zone of […]
inhibition) appears around the test product. The diameter of a clear zone around the well is […]
If the fungal strain is susceptible to the antifungal agent, then a zone of inhibition appears on the agar plate. If it is resistant to the test compound, then no zone is evident. The size of the zone of inhibition is usually related to the level of antifungal activity present in the compound – a larger […]
The growth rate of all strains for each concentration of test compounds was determined visually and compared with the growth of control.
Broth microdilution antifungal susceptibility testing
A 96-well CELLSTAR plate (sterile, flat-bottomed, polystyrene, transparent) was used to determine MIC by broth microdilution method. Also, dabble straight RPMI-1640 medium with 2% glucose (2x RPMI 2%G) was used for this method. Spore suspension for plate inoculation was prepared according to the method described above for the disc diffusion method.
The each well in the plate contained 49 μl of medium (2x RPMI 2%G), 50 μl of inoculum (prepared in DPBS) and 1 μl of the stock solution of the test substance. Positive control wells contained 50 μl medium and 50 μl inoculum, and sterile control wells contained 50 μl medium and […]
To determine the MIC by the microdilution method, a series of stock solutions of fungicides and their analogues in DMSO with the following concentrations were prepared: 3.2 mg/mL, 1.6 mg/mL, […]
1 μl of the stock solutions of the test substances were added to each well to obtain the following […]
Immediately after adding all the components to the plates, the optical density was measured at […]

[3] = Metabolic stability in human liver microsomes; settings: both, liver microsomes (pooled); for microsomal CLint at 2 µM: pH 7.4; for remaining at 40 min, 2 µM: Mean of 2, 40 min; for remaining at 40 min, 2 µM / remaining at […], 2 µM / remaining at 25 min, 2 µM / k el at 2 µM: Table S6, 1st batch; for remaining at 25 min, 2 µM: Mean of 2, 25 min; for k el at 2 µM: pH 7.4, kel; for half-life at 2 µM: pH 7.4, t1/2, Table S6, 1st batch
[4] = read-out: PBS solubility, pH 7.4, Incubation 1
[5] = read-out: PBS solubility, pH 7.4, Incubation 2
[6] = read-out: PBS solubility, pH 7.4, Mean
[7] = Table S5, injection 1, octanol/PBS pH 7.4
[8] = Table S5, injection 2, octanol/PBS pH 7.4
[9] = Table S5, injection 3, octanol/PBS pH 7.4
[10] = pH 7.4, % Remaining without cofactor, no NADPH cofactor
[11] = pH 7.4, % Remaining, Mean of 2, 7 min
[12] = pH 7.4, % Remaining, Mean of 2, 15 min

| Compound | solubility kinetic at 2 h [1] [µM] | solubility at 2 h [1, 4] [µM] | solubility at 2 h [1, 5] [µM] | solubility at 2 h [1, 6] [µM] | D [7] | D [8] | D [9] | zone of inhibition at 4 µg/mL [2] [mm] | zone of inhibition at 8 µg/mL [2] [mm] | zone of inhibition at 16 µg/mL [2] [mm] | zone of inhibition at 30 µg/mL [2] [mm] | zone of inhibition at 60 µg/mL [2] [mm] | zone of inhibition at 120 µg/mL [2] [mm] | zone of inhibition at 250 µg/mL [2] [mm] | zone of inhibition at 500 µg/mL [2] [mm] | zone of inhibition at 1000 µg/mL [2] [mm] | zone of inhibition at 2000 µg/mL [2] [mm] | microsomal CLint at 2 µM [3] [µL/min/mg] | remaining at 40 min, 2 µM [3, 10] [%] | remaining at […], 2 µM [3, 11] [%] | also measured |
| --- | --- | --- | --- | --- | --- | --- | --- | --- | --- | --- | --- | --- | --- | --- | --- | --- | --- | --- | --- | --- | --- |
| Cn1cc(C(=O)NC2CC3CC2(c2ccc(Cl)c(Cl)c2)C3)c(C(F)F)n1 (centres unmarked) [Compound 29] | 4 (≈ 1.6 µg/mL) | 4 (≈ 1.6 µg/mL) | 4 (≈ 1.6 µg/mL) | 4 (≈ 1.6 µg/mL) | 1.26E+04 | 1.38E+04 | 1.92E+04 | 0 | 0 | 0 | 3.5 ± 0.5 | 6.5 ± 1 | 8.75 ± 1.25 | 12 ± 0.5 | 12.5 ± 1.5 | 16.2 ± 1.25 | 23.5 ± 2 | 35 | 106 | 83 | remaining at […], 2 µM [3, 12]: 73%; remaining at 25 min, 2 µM ([3]; pH 7.4, % Remaining): 67%; remaining at 40 min, 2 µM ([3]; pH 7.4, % Remaining): 54%; k el at 2 µM [3]: 0.00025 s⁻¹; half-life at 2 µM [3]: 47.4 min |
| Cn1cc(C(=O)NC2CC3CC2(c2cc(F)c(F)c(F)c2)C3)c(C(F)F)n1 (centres unmarked) [Compound 30] | 27 (≈ 10.4 µg/mL) | 25 (≈ 9.63 µg/mL) | 28 (≈ 10.8 µg/mL) | 27 (≈ 10.4 µg/mL) | 4.08E+03 | 4.11E+03 | 4.44E+03 | 0 | 0 | 0 | 0 | 0 | 10 ± 0.5 | 8.5 ± 1 | 13.8 ± 0.75 | 20.5 ± 1 | 24.2 ± 0.75 | 61 | 109 | 70 | remaining at […], 2 µM [3, 12]: 53%; remaining at 25 min, 2 µM ([3]; pH 7.4, % Remaining): 43%; remaining at 40 min, 2 µM ([3]; pH 7.4, % Remaining): 35%; k el at 2 µM [3]: 0.000417 s⁻¹; half-life at 2 µM [3]: 27.3 min |
